Earlier results on one molecule are cited in PubChem BioAssay AID1259409 (Chemical Carcinogenesis Research Information System (CCRIS), 2018).

This data set concerns rodent chemically induced tumor inhibition, incidence and multiplicity. Briefly: CCRIS tumor inhibitor studies. The following applies: for tumour outcome (control, treated, inhibition, significance): Species: RAT.

Regarding `C=CCSSCC=C`, the “tumour outcome (control, treated, inhibition, significance)” value (Carcinogen: 2-AMINO-1-METHYL-6-PHENYLIMIDAZO[4,5-B]PYRIDINE [105650-23-5], Dose [Inhibitor]: 200 PPM IN DIET FOR 4 WK BEGINNING WK PRIOR TO FIRST CARCINOGEN DOSE (STUDY DURATION: 25 WK), Route [Inhibitor]: ORAL, Strain/Sex: SPRAGUE-DAWLEY/FEMALE, Target Tissue: Type of Lesion: MAMMARY GLAND: FIBROADENOMA OR DUCTAL CARCINOMA, Dose [Carcinogen]: 85 MG/KG BW 2X/WK FOR 4 WK (STUDY DURATION: 25 WK), Promoter: NONE) is 68%, 52%, 24%, not significant; the “tumour outcome (control, treated, inhibition, significance)” value (Carcinogen: 2-AMINO-1-METHYL-6-PHENYLIMIDAZO[4,5-B]PYRIDINE, 105650-23-5, Dose [Inhibitor]: 0, 200 PPM IN HIGH FAT DIET FOR 4 WK BEGINNING 1 WK PRIOR TO CARCINOGEN TREATMENT (STUDY DURATION: 25 WK), Route [Inhibitor]: ORAL, Strain/Sex: SPRAGUE-DAWLEY/FEMALE, Target Tissue: Type of Lesion: MAMMARY GLAND: CARCINOMA, Dose [Carcinogen]: 85 MG/KG BW IN CORN OIL 8 TIMES IN 10 D, Promoter: NONE USED) is 21/31 (68%), 16/31 (52%), 24%, not calculated; the “tumour outcome (control, treated, inhibition, significance)” value (Carcinogen: 2-AMINO-1-METHYL-6-PHENYLIMIDAZO[4,5-B]PYRIDINE, 105650-23-5, Dose [Inhibitor]: 0, 200 PPM IN HIGH FAT DIET FOR 4 WK BEGINNING 1 WK PRIOR TO CARCINOGEN TREATMENT (STUDY DURATION: 25 WK), Route [Inhibitor]: ORAL, Strain/Sex: SPRAGUE-DAWLEY/FEMALE, Target Tissue: Type of Lesion: MAMMARY GLAND: FIBROADENOMA, Dose [Carcinogen]: 85 MG/KG BW IN CORN OIL 8 TIMES IN 10 D, Promoter: NONE USED) is recorded as 3/31 (10%), 0/31 (0%), 100%, not calculated; the “tumour outcome (control, treated, inhibition, significance)” value (Carcinogen: 7,12-DIMETHYLBENZ[A]ANTHRACENE, 57-97-6, Dose [Inhibitor]: 0, 1.8 MMOL/KG BW IN CORN OIL 96, 48 AND 24 HR PRIOR TO CARCINOGEN TREATMENT (STUDY DURATION: 25 WK), Route [Inhibitor]: GAVAGE, Strain/Sex: SPRAGUE-DAWLEY/FEMALE, Target Tissue: Type of Lesion: MAMMARY GLAND: ADENOCARCINOMA, Dose [Carcinogen]: 10 MG ONCE, Promoter: NONE USED) is 92%, 36%, 61%, p<0.05; the “tumour outcome (control, treated, inhibition, significance)” value (Carcinogen: AZOXYMETHANE, 25843-45-2, Dose [Inhibitor]: 0, 100 PPM IN DIET BEGINNING 2 WK PRIOR TO CARCINOGEN TREATMENT AND CONTINUING FOR DURATION OF STUDY (STUDY DURATION: 56, Route [Inhibitor]: ORAL, Strain/Sex: F344/MALE, Target Tissue: Type of Lesion: COLON: INVASIVE ADENOCARCINOMA, Dose [Carcinogen]: 15 MG/KG 1/WK FOR 2 WK, Promoter: NONE USED) is 34%, 11%, 68%, p<0.05; the “tumour outcome (control, treated, inhibition, significance)” value (Carcinogen: AZOXYMETHANE, 25843-45-2, Dose [Inhibitor]: 0, 100 PPM IN DIET BEGINNING 2 WK PRIOR TO CARCINOGEN TREATMENT AND CONTINUING FOR DURATION OF STUDY (STUDY DURATION: 56, Route [Inhibitor]: ORAL, Strain/Sex: F344/MALE, Target Tissue: Type of Lesion: COLON: NONINVASIVE ADENOCARCINOMA, Dose [Carcinogen]: 15 MG/KG 1/WK FOR 2 WK, Promoter: NONE USED) is 53%, 53%, 0%, not significant. Also, the “tumour outcome (control, treated, inhibition, significance)” value is, setting by setting: (Carcinogen: AZOXYMETHANE, 25843-45-2, Dose [Inhibitor]: 0, 200 PPM IN DIET BEGINNING 2 WK PRIOR TO CARCINOGEN TREATMENT AND CONTINUING FOR DURATION OF STUDY (STUDY DURATION: 56, Route [Inhibitor]: ORAL, Strain/Sex: F344/MALE, Target Tissue: Type of Lesion: COLON: INVASIVE ADENOCARCINOMA, Dose [Carcinogen]: 15 MG/KG 1/WK FOR 2 WK, Promoter: NONE USED) 34%, 6%, 82%, p<0.01; (Carcinogen: AZOXYMETHANE, 25843-45-2, Dose [Inhibitor]: 0, 200 PPM IN DIET BEGINNING 2 WK PRIOR TO CARCINOGEN TREATMENT AND CONTINUING FOR DURATION OF STUDY (STUDY DURATION: 56, Route [Inhibitor]: ORAL, Strain/Sex: F344/MALE, Target Tissue: Type of Lesion: COLON: NONINVASIVE ADENOCARCINOMA, Dose [Carcinogen]: 15 MG/KG 1/WK FOR 2 WK, Promoter: NONE USED) 53%, 58%, -9%, not significant; (Carcinogen: DIETHYLNITROSAMINE, 55-18-5, N-METHYL-N-NITROSOUREA, 684-93-5, N,N'-DIMETHYLHYDRAZINE, 540-73-8, N-BUTYL-N-(4-HYDR, Carcinogen: DIETHYLNITROSAMINE, 55-18-5, N-METHYL-N-NITROSOUREA, 684-93-5, N,N'-DIMETHYLHYDRAZINE, 540-73-8, N-BUTYL-N-(4-HYDR, Dose [Inhibitor]: 0, 50 MG/KG BW IN CORN OIL 3/WK FOR 6 WK BEGINNING POST CARCINOGEN TREATMENT (STUDY DURATION: 28 WK), Route [Inhibitor]: GAVAGE, Strain/Sex: F344/MALE, Target Tissue: Type of Lesion: KIDNEY: RENAL CELL ADENOMA, Dose [Carcinogen]: 100 MG/KG BW DEN ONCE, 20 MG/KG BW MNU ONCE ON D 2, 5, 8 AND 11, 40 MG/KG BW DMH ON D 14, 17, 20 AND 23, 0.05% BHBN I, Dose [Carcinogen]: 100 MG/KG BW DEN ONCE, 20 MG/KG BW MNU ONCE ON D 2, 5, 8 AND 11, 40 MG/KG BW DMH ON D 14, 17, 20 AND 23, 0.05% BHBN I, Promoter: NONE USED) 4/20 (20%), 0/19 (0%), 100%, not calculated; (Carcinogen: DIETHYLNITROSAMINE, 55-18-5, N-METHYL-N-NITROSOUREA, 684-93-5, N,N'-DIMETHYLHYDRAZINE, 540-73-8, N-BUTYL-N-(4-HYDR, Carcinogen: DIETHYLNITROSAMINE, 55-18-5, N-METHYL-N-NITROSOUREA, 684-93-5, N,N'-DIMETHYLHYDRAZINE, 540-73-8, N-BUTYL-N-(4-HYDR, Dose [Inhibitor]: 0, 50 MG/KG BW IN CORN OIL 3/WK FOR 6 WK BEGINNING POST CARCINOGEN TREATMENT (STUDY DURATION: 28 WK), Route [Inhibitor]: GAVAGE, Strain/Sex: F344/MALE, Target Tissue: Type of Lesion: LARGE INTESTINE: ADENOMA, Dose [Carcinogen]: 100 MG/KG BW DEN ONCE, 20 MG/KG BW MNU ONCE ON D 2, 5, 8 AND 11, 40 MG/KG BW DMH ON D 14, 17, 20 AND 23, 0.05% BHBN I, Dose [Carcinogen]: 100 MG/KG BW DEN ONCE, 20 MG/KG BW MNU ONCE ON D 2, 5, 8 AND 11, 40 MG/KG BW DMH ON D 14, 17, 20 AND 23, 0.05% BHBN I, Promoter: NONE USED) 6/20 (30%), 1/19 (5%), 83%, p<0.01; (Carcinogen: DIETHYLNITROSAMINE, 55-18-5, N-METHYL-N-NITROSOUREA, 684-93-5, N,N'-DIMETHYLHYDRAZINE, 540-73-8, N-BUTYL-N-(4-HYDR, Carcinogen: DIETHYLNITROSAMINE, 55-18-5, N-METHYL-N-NITROSOUREA, 684-93-5, N,N'-DIMETHYLHYDRAZINE, 540-73-8, N-BUTYL-N-(4-HYDR, Dose [Inhibitor]: 0, 50 MG/KG BW IN CORN OIL 3/WK FOR 6 WK BEGINNING POST CARCINOGEN TREATMENT (STUDY DURATION: 28 WK), Route [Inhibitor]: GAVAGE, Strain/Sex: F344/MALE, Target Tissue: Type of Lesion: LARGE INTESTINE: CARCINOMA, Dose [Carcinogen]: 100 MG/KG BW DEN ONCE, 20 MG/KG BW MNU ONCE ON D 2, 5, 8 AND 11, 40 MG/KG BW DMH ON D 14, 17, 20 AND 23, 0.05% BHBN I, Dose [Carcinogen]: 100 MG/KG BW DEN ONCE, 20 MG/KG BW MNU ONCE ON D 2, 5, 8 AND 11, 40 MG/KG BW DMH ON D 14, 17, 20 AND 23, 0.05% BHBN I, Promoter: NONE USED) 8/20 (40%), 3/19 (16%), 60%, not calculated; (Carcinogen: DIETHYLNITROSAMINE, 55-18-5, N-METHYL-NITROSOUREA ;684-93-5, N,N'-DIMETHYLHYDRAZINE, 540-73-8, N-BUTYL-N-(4-HYDROXY, Carcinogen: DIETHYLNITROSAMINE, 55-18-5, N-METHYL-NITROSOUREA ;684-93-5, N,N'-DIMETHYLHYDRAZINE, 540-73-8, N-BUTYL-N-(4-HYDROXY, Dose [Inhibitor]: 0, 50 MG/KG BW IN CORN OIL 3/WK FOR 6 WK BEGINNING POST CARCINOGEN TREATMENT (STUDY DURATION: 28 WK), Route [Inhibitor]: GAVAGE, Strain/Sex: F344/MALE, Target Tissue: Type of Lesion: KIDNEY: NEPHROBLASTOMA, Dose [Carcinogen]: 100 MG/KG BW DEN ONCE, 20 MG/KG BW MNU ONCE ON D 2, 5, 8 AND 11, 40 MG/KG BW DMH ON D 14, 17, 20 AND 23, 0.05% BHBN I, Dose [Carcinogen]: 100 MG/KG BW DEN ONCE, 20 MG/KG BW MNU ONCE ON D 2, 5, 8 AND 11, 40 MG/KG BW DMH ON D 14, 17, 20 AND 23, 0.05% BHBN I, Promoter: NONE USED) 5/20 (25%), 0/19 (0%), 100%, p<0.05. The “tumour outcome (control, treated, inhibition, significance)” value is, setting by setting: (Carcinogen: DIETHYLNITROSAMINE, 55-18-5, N-METHYL-NITROSOUREA, 684-93-5, N,N'-DIMETHYLHYDRAZINE, 540-73-8, N-BUTYL-N-(4-HYDROX, Carcinogen: DIETHYLNITROSAMINE, 55-18-5, N-METHYL-NITROSOUREA, 684-93-5, N,N'-DIMETHYLHYDRAZINE, 540-73-8, N-BUTYL-N-(4-HYDROX, Dose [Inhibitor]: 0, 50 MG/KG BW IN CORN OIL 3/WK FOR 6 WK BEGINNING POST CARCINOGEN TREATMENT (STUDY DURATION: 28 WK), Route [Inhibitor]: GAVAGE, Strain/Sex: F344/MALE, Target Tissue: Type of Lesion: KIDNEY: RENAL CELL CARCINOMA, Dose [Carcinogen]: 100 MG/KG BW DEN ONCE, 20 MG/KG BW MNU ONCE ON D 2, 5, 8 AND 11, 40 MG/KG BW DMH ON D 14, 17, 20 AND 23, 0.05% BHBN I, Dose [Carcinogen]: 100 MG/KG BW DEN ONCE, 20 MG/KG BW MNU ONCE ON D 2, 5, 8 AND 11, 40 MG/KG BW DMH ON D 14, 17, 20 AND 23, 0.05% BHBN I, Promoter: NONE USED) 1/20 (5%), 0/19 (0%), 100%, not calculated; (Carcinogen: N-METHYL-N-NITROSOUREA, 684-93-5, Dose [Inhibitor]: 0, 57 UMOL/KG DIET FOR 25 WK BEGINNING 2 WK PRIOR TO CARCINOGEN DOSE (STUDY DURATION: 25 WK), Route [Inhibitor]: ORAL, Strain/Sex: SPRAGUE-DAWLEY/FEMALE, Target Tissue: Type of Lesion: MAMMARY GLAND: TUMOR, Dose [Carcinogen]: 15 MG/KG BW ONCE, Promoter: NONE USED) 81%, 38%, 53%, p<0.05. The outcome (Carcinogen: N-methyl-N-nitrosourea (684-93-5), Dose [Inhibitor]: 0, 150 mg/kg bw by gavage 2 x a wk for 16 wks of hormones and MNU, study duration 16 wks, Dose [Inhibitor]: 0, 150 mg/kg bw by gavage 2 x a wk for 16 wks of hormones and MNU, study duration 16 wks, Route [Inhibitor]: Oral, Species: Rat, Strain/Sex: Sprague-Dawley/Male, Target Tissue: Type of Lesion: Prostate: Prostatic intraepithelial neoplasia, Dose [Carcinogen]: 150 mg/kg bw once, Promoter: Cyproterone acetate (427-51-0) and testosterone propionate (57-85-2)) was “dorsolateral prostate: 40% (hormones + mnu); 10% (hormones + mnu + diallyl sulfi”.
